Paper PMC7764069 (Microorganisms, 2020)
Read-outs that look alike come from different tables or passages of the source.

Tests used:
[1] = BXA in humans; mimicked by 15 mg/kg BXM BID for 5 days orally in immunocompetent mice; cited from earlier work
A(H1N1)pdm09 virus = tested on: A(H1N1)pdm09 virus; parameters: method as in PMID 31837268; conditions: nude mice, BXM 10 mg/kg once daily for 28 days; untreated controls 5 days; cited from earlier work
[2] = tested on: splenic T, B and NK cells; conditions: for frequency of proliferating B cells: day 4 post infection; for frequency of proliferating B cells / percentage of proliferating T cells: CP 100 mg/kg i.p.

O=C1c2c(O)c(=O)ccn2N([C@@H]2c3ccccc3SCc3c2ccc(F)c3F)[C@@H]2COCCN12 [BXA, baloxavir acid]
target plasma concentration [1]: 6.85 ng/mL

COC(=O)OCOc1c2n(ccc1=O)N([C@@H]1c3ccccc3SCc3c1ccc(F)c3F)[C@@H]1COCCN1C2=O [BXM, baloxavir marboxil]
median survival time (A(H1N1)pdm09 virus): 49 days

O=P1(N(CCCl)CCCl)NCCCO1 (stereo not shown) [CP, cyclophosphamide]
NK proliferative capacity ([2]; following CP administration, day 4 p.i.): no significant decline | frequency of proliferating B cells ([2]; infected animals, without CP 94.7%): 40.7% | percentage of proliferating T cells ([2]; infected mice, day 4 p.i., without CP […]): 72.6% | percentage of proliferating T cells ([2]; uninfected mice, day 4 p.i., without CP 92.2%): 63.1% | frequency of proliferating B cells ([2]; uninfected mice, without CP 82.5%): 36.2%
